System: NHBE cells
Assay: Biolog metabolic array: substrate use by NHBE cells with or without CA09 infection
Assay type: cell-based, human
Settings: for Substrate use, 590 nm absorbance normalized to zero hour, 0 hr: Biolog PMM2, 0 hr; for Substrate use, 590 nm absorbance normalized to zero hour, 1 hr: Biolog PMM2, 1 hr; for Substrate use, 590 nm absorbance normalized to zero hour, 5 hr: Biolog PMM2, 5 hr; for Substrate use, 590 nm absorbance normalized to zero hour, 7 hr: Biolog PMM2, 7 hr
[1] = Control (uninfected) NHBE cells
[2] = Virus (CA09-infected NHBE cells, MOI 1)
[3] = Virus: CA09-infected NHBE cells, MOI 1, Biolog PMM2
[4] = Virus (CA09-infected, MOI 1) NHBE cells

## CCC(=O)C(=O)O [a-Keto-Butyric Acid]
[1]
  590 nm absorbance normalized to zero hour (substrate use), 0 hr: 1.00
  590 nm absorbance normalized to zero hour (substrate use), 1 hr: 1.10
  590 nm absorbance normalized to zero hour (substrate use), 2 hr: 1.17
  590 nm absorbance normalized to zero hour (substrate use), 3 hr: 1.24
  590 nm absorbance normalized to zero hour (substrate use), 4 hr: 1.25
  590 nm absorbance normalized to zero hour (substrate use), 6 hr: 1.49
  590 nm absorbance normalized to zero hour (substrate use), 8 hr: 1.34
  590 nm absorbance normalized to zero hour (substrate use), 9 hr: 1.36
  590 nm absorbance normalized to zero hour (substrate use), 10 hr: 1.37
  590 nm absorbance normalized to zero hour (substrate use), 11 hr: 1.39
  Substrate use, 590 nm absorbance normalized to zero hour, 0 hr: 1.00
  Substrate use, 590 nm absorbance normalized to zero hour, 1 hr: 1.10
  Substrate use, 590 nm absorbance normalized to zero hour, 5 hr: 1.28
  Substrate use, 590 nm absorbance normalized to zero hour, 7 hr: 1.33
[2]
  590 nm absorbance normalized to zero hour (substrate use), 0 hr: 1.00
  590 nm absorbance normalized to zero hour (substrate use), 1 hr: 0.28
  590 nm absorbance normalized to zero hour (substrate use), 2 hr: 0.29
  590 nm absorbance normalized to zero hour (substrate use), 3 hr: 0.30
  590 nm absorbance normalized to zero hour (substrate use), 4 hr: 0.31
  590 nm absorbance normalized to zero hour (substrate use), 5 hr: 0.32
  590 nm absorbance normalized to zero hour (substrate use), 6 hr: 0.32
  590 nm absorbance normalized to zero hour (substrate use), 7 hr: 0.33
  590 nm absorbance normalized to zero hour (substrate use), 8 hr: 0.33
  590 nm absorbance normalized to zero hour (substrate use), 9 hr: 0.34
  590 nm absorbance normalized to zero hour (substrate use), 10 hr: 0.34
  590 nm absorbance normalized to zero hour (substrate use), 11 hr: 0.34
[3]
  590 nm absorbance normalized to zero hour (substrate use), 0 hr: 1.00
  590 nm absorbance normalized to zero hour (substrate use), 1 hr: 0.28
  590 nm absorbance normalized to zero hour (substrate use), 2 hr: 0.29
  590 nm absorbance normalized to zero hour (substrate use), 3 hr: 0.30
  590 nm absorbance normalized to zero hour (substrate use), 4 hr: 0.31
  590 nm absorbance normalized to zero hour (substrate use), 5 hr: 0.32
  590 nm absorbance normalized to zero hour (substrate use), 6 hr: 0.32
  590 nm absorbance normalized to zero hour (substrate use), 7 hr: 0.33
  590 nm absorbance normalized to zero hour (substrate use), 8 hr: 0.33
  590 nm absorbance normalized to zero hour (substrate use), 9 hr: 0.34
  590 nm absorbance normalized to zero hour (substrate use), 10 hr: 0.34
  590 nm absorbance normalized to zero hour (substrate use), 11 hr: 0.34

## O=C(O)CCC(=O)C(=O)O [a-Keto-Glutaric Acid]
[1]
  590 nm absorbance normalized to zero hour (substrate use), 0 hr: 1.00
  590 nm absorbance normalized to zero hour (substrate use), 1 hr: 1.29
  590 nm absorbance normalized to zero hour (substrate use), 2 hr: 1.54
  590 nm absorbance normalized to zero hour (substrate use), 3 hr: 1.40
  590 nm absorbance normalized to zero hour (substrate use), 4 hr: 1.45
  590 nm absorbance normalized to zero hour (substrate use), 6 hr: 1.98
  590 nm absorbance normalized to zero hour (substrate use), 8 hr: 1.69
  590 nm absorbance normalized to zero hour (substrate use), 9 hr: 1.80
  590 nm absorbance normalized to zero hour (substrate use), 10 hr: 1.93
  590 nm absorbance normalized to zero hour (substrate use), 11 hr: 2.00
  Substrate use, 590 nm absorbance normalized to zero hour, 0 hr: 1.00
  Substrate use, 590 nm absorbance normalized to zero hour, 1 hr: 1.29
  Substrate use, 590 nm absorbance normalized to zero hour, 5 hr: 1.52
  Substrate use, 590 nm absorbance normalized to zero hour, 7 hr: 1.61
[2]
  590 nm absorbance normalized to zero hour (substrate use), 0 hr: 1.00
  590 nm absorbance normalized to zero hour (substrate use), 1 hr: 0.28
  590 nm absorbance normalized to zero hour (substrate use), 2 hr: 0.37
  590 nm absorbance normalized to zero hour (substrate use), 3 hr: 0.45
  590 nm absorbance normalized to zero hour (substrate use), 4 hr: 0.46
  590 nm absorbance normalized to zero hour (substrate use), 5 hr: 0.51
  590 nm absorbance normalized to zero hour (substrate use), 6 hr: 0.54
  590 nm absorbance normalized to zero hour (substrate use), 7 hr: 0.56
  590 nm absorbance normalized to zero hour (substrate use), 8 hr: 0.58
  590 nm absorbance normalized to zero hour (substrate use), 9 hr: 0.64
  590 nm absorbance normalized to zero hour (substrate use), 10 hr: 0.64
  590 nm absorbance normalized to zero hour (substrate use), 11 hr: 0.69
[3]
  590 nm absorbance normalized to zero hour (substrate use), 0 hr: 1.00
  590 nm absorbance normalized to zero hour (substrate use), 1 hr: 0.28
  590 nm absorbance normalized to zero hour (substrate use), 2 hr: 0.37
  590 nm absorbance normalized to zero hour (substrate use), 3 hr: 0.45
  590 nm absorbance normalized to zero hour (substrate use), 4 hr: 0.46
  590 nm absorbance normalized to zero hour (substrate use), 5 hr: 0.51
  590 nm absorbance normalized to zero hour (substrate use), 6 hr: 0.54
  590 nm absorbance normalized to zero hour (substrate use), 7 hr: 0.56
  590 nm absorbance normalized to zero hour (substrate use), 8 hr: 0.58
  590 nm absorbance normalized to zero hour (substrate use), 9 hr: 0.64
  590 nm absorbance normalized to zero hour (substrate use), 10 hr: 0.64
  590 nm absorbance normalized to zero hour (substrate use), 11 hr: 0.69

## CO[C@H]1O[C@H](CO)[C@H](O)[C@H](O)[C@H]1O [a-Methyl-D-Galactoside]
[1]
  590 nm absorbance normalized to zero hour (substrate use), 0 hr: 1.00
  590 nm absorbance normalized to zero hour (substrate use), 1 hr: 1.13
  590 nm absorbance normalized to zero hour (substrate use), 2 hr: 0.68
  590 nm absorbance normalized to zero hour (substrate use), 3 hr: 0.80
  590 nm absorbance normalized to zero hour (substrate use), 4 hr: 0.84
  590 nm absorbance normalized to zero hour (substrate use), 6 hr: 1.20
  590 nm absorbance normalized to zero hour (substrate use), 8 hr: 1.15
  590 nm absorbance normalized to zero hour (substrate use), 9 hr: 1.29
  590 nm absorbance normalized to zero hour (substrate use), 10 hr: 1.42
  590 nm absorbance normalized to zero hour (substrate use), 11 hr: 1.06
  Substrate use, 590 nm absorbance normalized to zero hour, 0 hr: 1.00
  Substrate use, 590 nm absorbance normalized to zero hour, 1 hr: 1.13
  Substrate use, 590 nm absorbance normalized to zero hour, 5 hr: 1.01
  Substrate use, 590 nm absorbance normalized to zero hour, 7 hr: 1.15
[4]
  590 nm absorbance normalized to zero hour (substrate use), 0 hr: 1.00
  590 nm absorbance normalized to zero hour (substrate use), 1 hr: 2.91
  590 nm absorbance normalized to zero hour (substrate use), 2 hr: 1.88
  590 nm absorbance normalized to zero hour (substrate use), 3 hr: 1.16
  590 nm absorbance normalized to zero hour (substrate use), 4 hr: 1.24
  590 nm absorbance normalized to zero hour (substrate use), 5 hr: 1.43
  590 nm absorbance normalized to zero hour (substrate use), 6 hr: 1.51
  590 nm absorbance normalized to zero hour (substrate use), 7 hr: 1.59
  590 nm absorbance normalized to zero hour (substrate use), 8 hr: 1.67
  590 nm absorbance normalized to zero hour (substrate use), 9 hr: 1.83
  590 nm absorbance normalized to zero hour (substrate use), 10 hr: 1.89
  590 nm absorbance normalized to zero hour (substrate use), 11 hr: 2.05
[3]
  590 nm absorbance normalized to zero hour (substrate use), 0 hr: 1.00
  590 nm absorbance normalized to zero hour (substrate use), 1 hr: 2.91
  590 nm absorbance normalized to zero hour (substrate use), 2 hr: 1.88
  590 nm absorbance normalized to zero hour (substrate use), 3 hr: 1.16
  590 nm absorbance normalized to zero hour (substrate use), 4 hr: 1.24
  590 nm absorbance normalized to zero hour (substrate use), 5 hr: 1.43
  590 nm absorbance normalized to zero hour (substrate use), 6 hr: 1.51
  590 nm absorbance normalized to zero hour (substrate use), 7 hr: 1.59
  590 nm absorbance normalized to zero hour (substrate use), 8 hr: 1.67
  590 nm absorbance normalized to zero hour (substrate use), 9 hr: 1.83
  590 nm absorbance normalized to zero hour (substrate use), 10 hr: 1.89
  590 nm absorbance normalized to zero hour (substrate use), 11 hr: 2.05

Reference: patent publication US11083725B2 (priority 2014, dated 2021)
